Our source for the IC50 values is patent publication US20260022127A1, “HEXACYCLIC TOPOISOMERASE INHIBITORS HAVING CYTOTOXIC ACTIVITY ON CANCER CELLS” (priority 2022, published 2026).

For the assay, the system named is SKBR-3 cell line (human breast cancer). Briefly: 2D-cytotoxicity assay of free payloads (Cell titer glow, 72 hours). The assay is classed as cell-based. Here is the method:
Protocol: Day 1:5,000 cells/well were plated and incubated at 37° C. overnight, unless otherwise noted.
Day 2: Payload/vehicle control dilutions were made in respective media and added to cells. Volume added: 50 μL to each well. Starting treatment concentration was 0.1 mM for free payloads/10% for vehicle control and then diluted 10-fold down for a total of 11 treatment dilutions. Each concentration was analyzed in triplicates. Media-only wells was used as a control to calculate percent viability.
Day 5: Cell titer glow reagent (volume: 50 μL) was added to each well, the plate was shaken for 5 mins and the luminescence was recorded.
Drug Treatment Time: 72 hours.
Data Analysis: Percent viability was calculated by dividing the luminescence signal obtained for each treated well by the untreated well (media-only control) and multiplying by 100. Data was next transformed using X=Log (x) and then analyzed with nonlinear regression (curve fit), Dose Response inhibition−log (inhibitor) vs response (3 parameters) using PRISM software to determine the IC50 value.

Setting [1] is: Homo sapiens, SK-BR-3, SKBR-3, 5,000 cells/well, read-out: IC50.
Where [2] appears, read: Homo sapiens, SK-BR-3, 72 h, SKBR-3, 5,000 cells/well.
Where [3] appears, read: SKBR-3, 5,000 cells/well, read-out: IC50.
[4] abbreviates: Homo sapiens, SK-BR-3, SKBR-3, 2000 cells/well, read-out: IC50.

pIC50: −log10 of the molar value. Where two headings read alike, the source gives them in different places.

Regarding `C#CCOC1c2c(nc3cc(F)c(C)c4c3c2CCC4)-c2cc3c(c(=O)n21)COC(=O)[C@]3(O)CC` (some centres unmarked) [Compound E-22], under setting [1], the pIC50 was 7.12.
On the same count and under the same terms, the result for `CC[C@@]1(O)C(=O)OCc2c1cc1n(c2=O)Cc2c-1nc1c(Cl)c(F)c(C)c3c1c2CCC3` [Compound E-38] reads 7.46.
Regarding `CCC1(O)C(=O)OCc2c1cc1n(c2=O)Cc2c-1nc1cc(F)c(C)c3c1c2CCC3` (centres unmarked) [Compound E-10], under setting [2], the pIC50 is 8.57.
Exatecan Mesylate [reference compound]: the pIC50 under setting [3] is 8.61.
Consider `CC[C@@]1(O)C(=O)OCc2c1cc1n(c2=O)Cc2c-1nc1cc(F)c(C)c3c1c2[C@@H](OCNC(=O)CN)CC3` (single isomer, unassigned) [E-35b*], for which the pIC50 under setting [4] was 7.23.
Regarding `C=CCC1c2c(nc3cc(F)c(C)c4c3c2CCC4)-c2cc3c(c(=O)n21)COC(=O)[C@]3(O)CC` (some centres unmarked) [Compound E-21], under setting [1], the pIC50 is 6.38.
As for `CC[C@@]1(O)C(=O)OCc2c1cc1n(c2=O)Cc2c-1nc1cc(F)c(C)c3c1c2[C@@H](NC(=O)CO)CC3` [Exatecan Glycolamide, reference compound], the pIC50 under setting [3] is 8.30.
As to `CC[C@@]1(O)C(=O)OCc2c1cc1n(c2=O)Cc2c-1nc1cc(F)c(C)c3c1c2CCC3` [Compound E-18], under setting [2], the pIC50 was 8.96.
On to `CC[C@@]1(O)C(=O)OCc2c1cc1n(c2=O)C(C)(C)c2c-1nc1cc(F)c(C)c3c1c2CCC3` [Compound E-25], for which the pIC50 under setting [1] is 5.52.
The molecule `CC[C@@]1(O)C(=O)OCc2c1cc1n(c2=O)Cc2c-1nc1cc(F)c(C)c3c1c2C(=NO)CC3` [Compound E-29] gave a pIC50 under setting [2] of 7.81.
On to `CC[C@@]1(O)C(=O)OCc2c1cc1n(c2=O)Cc2c-1nc1cc(F)c(C)c3c1c2C(O)CC3` (some centres unmarked) [Compound E-1], for which the pIC50 under setting [1] was 8.48.
As for `CC[C@@]1(O)C(=O)OCc2c1cc1n(c2=O)Cc2c-1nc1cc(F)c(C)c3c1c2C(OCNC(=O)CNC)CC3` (some centres unmarked) [Compound E-42], under “Homo sapiens, SK-BR-3, 72 h, SKBR-3, 1000 cells/well”, the pIC50 was 7.92.
Take `CC[C@@]1(O)C(=O)OCc2c1cc1n(c2=O)C2(CC=CC2)c2c-1nc1cc(F)c(C)c3c1c2CCC3` [Compound E-24]: under setting [1], the pIC50 is 6.29.
Consider `CC[C@@]1(O)C(=O)OCc2c1cc1n(c2=O)Cc2c-1nc1cc(F)c(C)c3c1c2[C@H](OCNC(=O)CN)CC3` (single isomer, unassigned) [E-35a*], for which, under setting [4], the pIC50 is 7.55.
Consider `CC[C@@]1(O)C(=O)OCc2c1cc1n(c2=O)Cc2c-1nc1cc(F)c(C)c3c1c2C(=O)CC3` [Compound E-2], for which the pIC50 is 7.56 (Homo sapiens, SK-BR-3, 72 h, SKBR-3, 5,000 cells/well, payload in ACN:Water) and 7.14 (Homo sapiens, SK-BR-3, 72 h, SKBR-3, 5,000 cells/well, payload in DMSO).
As to `CC[C@@]1(O)C(=O)OCc2c1cc1n(c2=O)Cc2c-1nc1cc(F)c(C)c3c1c2C(OCNC(=O)CN)CC3` (some centres unmarked) [Compound E-35], the pIC50 under setting [2] is 8.11.
In the case of `C=CCC1(CC=C)c2c(nc3cc(F)c(C)c4c3c2CCC4)-c2cc3c(c(=O)n21)COC(=O)[C@]3(O)CC` [Compound E-23], under setting [1], the pIC50 was 5.45.
Turning to `CC[C@@]1(OC(=O)CCCN)C(=O)OCc2c1cc1n(c2=O)Cc2c-1nc1cc(F)c(C)c3c1c2CCC3` [Compound E-43], the pIC50 under setting [4] was 7.49.
Under setting [2], `CC[C@@]1(O)C(=O)OCc2c1cc1n(c2=O)C(O)c2c-1nc1cc(F)c(C)c3c1c2CCC3` (some centres unmarked) [Compound E-19] showed a pIC50 of 7.12.
